Data reported in US12692261B2, “Substituted heterocyclic compounds and therapeutic uses thereof” (Bayer Aktiengesellschaft, priority 2020, dated 2026).

Assays:
[1] = target: T1, full-length human CSNK1A1 (Homo sapiens, UniProt P48729); experiment: CSNK1A1 Assay 2 (ADP-Glo, 1 μM ATP, substrate biotin-Ahx-KRRRAL-pS-VASLPGL); format: biochemical; settings: Table 3, read-out: CSNK1A1 Assay 2 IC50 [mol/l] (median)
T1 construct: N-terminal Glutathion-S-Transferase (GST) and full-length human CSNK1A1; purchased Life Technologies PV4174; host or cells: baculovirus infected insect cells
Outline: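 Activity read as ADP generated (ADP-Glo luciferase luminescence, 1 h detection steps at 22 °C). Enzyme was insect-cell-expressed GST–full-length human CSNK1A1, compound-preincubated 15 min before reaction with phosphopeptide substrate and 1 μM ATP in 50 mM HEPES pH 7.5, 10 mM MgCl2.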

full-length human CSNK1D = target: T2, full-length human CSNK1D (Homo sapiens, UniProt P48730); experiment: CSNK1D Assay (ADP-Glo, 1 μM ATP); format: biochemical; settings: Table 3, read-out: CSNK1D IC50 [mol/l] (median)
T2 construct: N-terminal Glutathion-S-Transferase (GST) and full-length human CSNK1D; purchased Life Technologies PV3665; host or cells: baculovirus infected insect cells
Outline: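 ADP-Glo luminescence reports ADP generated by GST-fused full-length human CSNK1D (insect-cell expressed, about 0.5 ng/μL) acting on a biotinylated peptide at 1 μM ATP. Test compounds were pre-bound to enzyme 15 min at 22° C in 50 mM HEPES pH 7.5.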

T1 sequence (P48729 whole entry): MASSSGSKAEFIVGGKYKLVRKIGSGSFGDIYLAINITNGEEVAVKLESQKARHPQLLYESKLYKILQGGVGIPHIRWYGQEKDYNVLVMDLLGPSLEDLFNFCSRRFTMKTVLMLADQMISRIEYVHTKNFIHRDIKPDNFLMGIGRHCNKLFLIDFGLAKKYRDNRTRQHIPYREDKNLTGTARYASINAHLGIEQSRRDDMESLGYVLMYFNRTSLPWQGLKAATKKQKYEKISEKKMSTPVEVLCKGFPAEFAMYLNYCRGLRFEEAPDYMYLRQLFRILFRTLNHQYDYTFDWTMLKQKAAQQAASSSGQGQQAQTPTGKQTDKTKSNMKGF
T2 sequence (P48730 whole entry): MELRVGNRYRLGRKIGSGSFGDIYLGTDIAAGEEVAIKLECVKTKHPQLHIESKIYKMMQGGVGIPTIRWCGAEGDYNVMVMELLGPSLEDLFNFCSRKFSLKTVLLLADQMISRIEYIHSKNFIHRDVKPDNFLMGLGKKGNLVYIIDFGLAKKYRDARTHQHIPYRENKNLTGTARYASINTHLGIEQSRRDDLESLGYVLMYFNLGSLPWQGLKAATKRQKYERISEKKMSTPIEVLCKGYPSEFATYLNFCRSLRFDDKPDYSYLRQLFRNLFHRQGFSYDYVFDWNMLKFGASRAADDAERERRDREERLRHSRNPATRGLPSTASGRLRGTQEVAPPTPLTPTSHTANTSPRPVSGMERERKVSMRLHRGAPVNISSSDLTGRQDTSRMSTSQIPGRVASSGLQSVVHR

SMILES	IC50 [1] [nM]	IC50 (full-length human CSNK1D) [nM]
O=C(Nc1cc(-c2[nH]c3c(O[C@H]4CCOC4)cc(F)nc3c2-c2ccccn2)ccn1)C(CC(F)F)c1ccc(F)cc1 (single isomer, unassigned) [Example 55, (2R or S)-4,4-difluoro-N-{4-[5-fluoro-7-{[(3S)-oxolan-3-yl]oxy}-3-(pyridin-2-yl)-1H-pyrrolo[3,2-b]pyridin-2-yl]pyridin-2-yl}-2-(4-fluorophenyl)butanamide]	18.3	24.9
O=C(Nc1cc(-c2[nH]c3c(N4CCOCC4)cc(F)nc3c2-c2ccccn2)ccn1)C(CC(F)F)c1ccc(F)cc1 (racemic) [Example 69, (2RS)-4,4-difluoro-N-{4-[5-fluoro-7-(morpholin-4-yl)-3-(pyridin-2-yl)-1H-pyrrolo[3,2-b]pyridin-2-yl]pyridin-2-yl}-2-(4-fluorophenyl)butanamide]	10.4	9.76
O=C(Nc1cc(-c2[nH]c3nc(F)cnc3c2-c2ccccn2)ccn1)C(CC(F)F)c1ccc(F)cc1 (racemic) [Example 60, (2RS)-4,4-difluoro-2-(4-fluorophenyl)-N-{4-[3-fluoro-7-(pyridin-2-yl)-5H-pyrrolo[2,3-b]pyrazin-6-yl]pyridin-2-yl}butanamide]	5.81	12.5
O=C(Nc1cc(-c2[nH]c3ccc(F)nc3c2-c2ccccn2)ccn1)[C@@H](CC(F)F)c1ccc(F)cc1 (single isomer, unassigned) [Example 2]	1.36	2.63
O=C(Nc1cc(-c2[nH]c3c(O[C@H]4CCOC4)cc(F)nc3c2-c2ccccn2)ccn1)C(CC(F)F)c1ccc(F)cc1 (mixture of isomers) [Example 53, (2RS)-4,4-difluoro-N-{4-[5-fluoro-7-{[(3S)-oxolan-3-yl]oxy}-3-(pyridin-2-yl)-1H-pyrrolo[3,2-b]pyridin-2-yl]pyridin-2-yl}-2-(4-fluorophenyl)butanamide]	6	7.31
COc1cnc2c(-c3ccccn3)c(-c3ccnc(NC(=O)C(CC(F)F)c4ccc(F)cc4)c3)[nH]c2c1 (stereo not shown) [Example 81, 4,4-difluoro-2-(4-fluorophenyl)-N-{4-[6-methoxy-3-(pyridin-2-yl)-1H-pyrrolo[3,2-b]pyridin-2-yl]pyridin-2-yl}butanamide]	4.02	5.85
O=C(Nc1cc(-c2[nH]c3cc(Cl)nnc3c2-c2ccccn2)ccn1)C(CC(F)F)c1ccc(F)cc1 (racemic) [Example 68, (2RS)—N-{4-[3-chloro-7-(pyridin-2-yl)-5H-pyrrolo[3,2-c]pyridazin-6-yl]pyridin-2-yl}-4,4-difluoro-2-(4-fluorophenyl)butanamide]	6.93	14.4
Cc1ccnc2c(-c3ccccn3)c(-c3ccnc(NC(=O)C(CC(F)F)c4ccc(F)cc4)c3)[nH]c12 (stereo not shown) [Example 84, 4,4-difluoro-2-(4-fluorophenyl)-N-{4-[7-methyl-3-(pyridin-2-yl)-1H-pyrrolo[3,2-b]pyridin-2-yl]pyridin-2-yl}butanamide]	4.77	7.35
Cc1cnc2c(-c3ccccn3)c(-c3ccnc(NC(=O)C(CC(F)F)c4ccc(F)cc4)c3)[nH]c2n1 (stereo not shown) [Example 85, 4,4-difluoro-2-(4-fluorophenyl)-N-{4-[3-methyl-7-(pyridin-2-yl)-5H-pyrrolo[2,3-b]pyrazin-6-yl]pyridin-2-yl}butanamide]	4.21	7.11
O=C(Nc1cc(-c2[nH]c3c(OCC(F)F)ncnc3c2-c2ccccn2)ccn1)C(CC(F)F)c1ccc(F)cc1 (single isomer, unassigned) [Example 79, (2R or S)—N-{4-[4-(2,2-difluoroethoxy)-7-(pyridin-2-yl)-5H-pyrrolo[3,2-d]pyrimidin-6-yl]pyridin-2-yl}-4,4-difluoro-2-(4-fluorophenyl)butanamide]	3.1	3.27
O=C(Nc1cc(-c2[nH]c3c(O[C@H]4CCOC4)ncnc3c2-c2ccccn2)ccn1)C(CC(F)F)c1ccc(F)cc1 (mixture of isomers) [Example 72, (2RS)-4,4-difluoro-2-(4-fluorophenyl)-N-{4-[4-{[(3S)-oxolan-3-yl]oxy}-7-(pyridin-2-yl)-5H-pyrrolo[3,2-d]pyrimidin-6-yl]pyridin-2-yl}butanamide]	7.1	7.3
O=C(Nc1cc(-c2[nH]c3ccc(F)nc3c2-c2ccccn2)ccn1)C(CC(F)F)c1ccc(F)cc1 (racemic) [Example 1, 4,4-difluoro-2-(4-fluorophenyl)-N-{4-[5-fluoro-3-(pyridin-2-yl)-1H-pyrrolo[3,2-b]pyridin-2-yl]pyridin-2-yl}butanamide]	10.1	15.7
O=C(Nc1cc(-c2[nH]c3c(OC[C@H]4COCCO4)cc(F)nc3c2-c2ccccn2)ccn1)C(CC(F)F)c1ccc(F)cc1 (single isomer, unassigned) [Example 52, (2R or S)—N-{4-[7-{[(2R)-1,4-dioxan-2-yl]methoxy}-5-fluoro-3-(pyridin-2-yl)-1H-pyrrolo[3,2-b]pyridin-2-yl]pyridin-2-yl}-4,4-difluoro-2-(4-fluorophenyl)butanamide]	17.2	23.4
O=C(Nc1cc(-c2[nH]c3ccnnc3c2-c2ccccn2)ccn1)C(CC(F)F)c1ccc(F)cc1 (racemic) [Example 65, (2RS)-4,4-difluoro-2-(4-fluorophenyl)-N-{4-[7-(pyridin-2-yl)-5H-pyrrolo[3,2-c]pyridazin-6-yl]pyridin-2-yl}butanamide]	2.75	5.62
O=C(Nc1cc(-c2[nH]c3ccc(Cl)nc3c2-c2ccccn2)ccn1)C(CC(F)F)c1ccc(F)cc1 (racemic) [Example 70, (2RS)—N-{4-[5-chloro-3-(pyridin-2-yl)-1H-pyrrolo[3,2-b]pyridin-2-yl]pyridin-2-yl}-4,4-difluoro-2-(4-fluorophenyl)butanamide]	5.43	9.21
CN1CCN(c2cc(F)nc3c(-c4ccccn4)c(-c4ccnc(NC(=O)C(CC(F)F)c5ccc(F)cc5)c4)[nH]c23)CC1 (racemic) [Example 56, (2RS)-4,4-difluoro-N-{4-[5-fluoro-7-(4-methylpiperazin-1-yl)-3-(pyridin-2-yl)-1H-pyrrolo[3,2-b]pyridin-2-yl]pyridin-2-yl}-2-(4-fluorophenyl)butanamide]	3.19	6.67
O=C(Nc1cc(-c2[nH]c3c(OCC(F)F)ncnc3c2-c2ccccn2)ccn1)C(CC(F)F)c1ccc(F)cc1 (racemic) [Example 78, (2RS)—N-{4-[4-(2,2-difluoroethoxy)-7-(pyridin-2-yl)-5H-pyrrolo[3,2-d]pyrimidin-6-yl]pyridin-2-yl}-4,4-difluoro-2-(4-fluorophenyl)butanamide]	5.16	5.15
O=C(Nc1cc(-c2[nH]c3cc(F)cnc3c2-c2ccccn2)ccn1)C(CO)c1ccc(F)cc1 (racemic) [Example 71, (2RS)—N-(4-(6-fluoro-3-(pyridin-2-yl)-1H-pyrrolo[3,2-b]pyridin-2-yl)pyridin-2-yl)-2-(4-fluorophenyl)-3-hydroxypropanamide]	8.21	12.8
O=C(Nc1cc(-c2[nH]c3ncc(F)nc3c2-c2ccccn2)ccn1)C(CC(F)F)c1ccc(F)cc1 (racemic) [Example 62, (2RS)-4,4-difluoro-2-(4-fluorophenyl)-N-{4-[2-fluoro-7-(pyridin-2-yl)-5H-pyrrolo[2,3-b]pyrazin-6-yl]pyridin-2-yl}butanamide]	3.92	8.9
O=C(Nc1cc(-c2[nH]c3c(OCC4CCCO4)cc(F)nc3c2-c2ccccn2)ccn1)C(CC(F)F)c1ccc(F)cc1 (racemic) [Example 61, (2RS)-4,4-difluoro-N-{4-[5-fluoro-7-{[(2RS)-oxolan-2-yl]methoxy}-3-(pyridin-2-yl)-1H-pyrrolo[3,2-b]pyridin-2-yl]pyridin-2-yl}-2-(4-fluorophenyl)butanamide]	11.1	8.79
O=C(Nc1cc(-c2[nH]c3c(OC[C@@H]4COCCO4)cc(F)nc3c2-c2ccccn2)ccn1)C(CC(F)F)c1ccc(F)cc1 (single isomer, unassigned) [Example 59, (2R or S)—N-{4-[7-{[(2S)-1,4-dioxan-2-yl]methoxy}-5-fluoro-3-(pyridin-2-yl)-1H-pyrrolo[3,2-b]pyridin-2-yl]pyridin-2-yl}-4,4-difluoro-2-(4-fluorophenyl)butanamide]	12.7	19.6
O=C(Nc1cc(-c2[nH]c3c(O[C@H]4CCOC4)ncnc3c2-c2ccccn2)ccn1)C(CC(F)F)c1ccc(F)cc1 (single isomer, unassigned) [Example 73, (2R or S)-4,4-difluoro-2-(4-fluorophenyl)-N-{4-[4-{[(3S)-oxolan-3-yl]oxy}-7-(pyridin-2-yl)-5H-pyrrolo[3,2-d]pyrimidin-6-yl]pyridin-2-yl}butanamide]	4.16	4.02
O=C(Nc1cc(-c2[nH]c3ccnnc3c2-c2ccccn2)ccn1)C(CC(F)F)c1ccc(F)cc1 (single isomer, unassigned) [Example 67, (2R or S)-4,4-difluoro-2-(4-fluorophenyl)-N-{4-[7-(pyridin-2-yl)-5H-pyrrolo[3,2-c]pyridazin-6-yl]pyridin-2-yl}butanamide]	22	29.7
